Legend:
Assay type in all cases: cell-based
MB cells [1] = assay: FACS analysis of cell cycle progression; conditions: vs miR-NC or scramble-siRNA
Description: (§1) To gain more insight into the tumor-suppressing and VCR-sensitizing activities of miR-584-5p, it was determined how the miR-584-5p mimic affected cell cycle progression of MB cells. […] Bar graphs show DNA histograms quantified using the FlowJo software. In FIG. 9A, the p-values were determined by two-way ANOVA followed by Tukey's multiple-comparisons test. Error bars represent mean±SEM. […] In FIG. 9B, the p-values were calculated using standard Student t-tests. Error bars represent mean±SEM. […] Next, it was determined whether miR-584-5p's effect on cell cycle progression may be mediated via its target genes eIF4E3/HDAC1. […] Bar graphs show dot plots quantified using the FlowJo software. Next, it was tested whether miR-584-5p-induced cell cycle arrest led to apoptosis of MB cells. […] In FIG. 8C, the bar graphs reflect DNA histograms quantified using the FlowJo software and in FIG. 8D and FIG. 9C, the bar graphs show dot plots quantified using the FlowJo software. The p-values for panels 8A-D and FIG. 9C were determined by two-way ANOVA followed by Tukey's multiple-comparisons test. Error bars represent mean±SEM. ****, p<0.0001; ***, p<0.001; **, p<0.01; *, p<0.05.
Flow cytometry analysis of cell cycle and apoptosis. […] Cells were analyzed using either FACScantoII or LSRII cytometers, and data were quantified using FlowJo 10.2 software.

U20S-DR-GFP cells = assay: ISceI-based DR-GFP reporter assay of homologous recombination; conditions: cells stably expressing DR-GFP reporter, FACS
Description: Bar graphs next to images show average number of 53BP1 foci/cell. The p-values were determined by two-way ANOVA followed by Sidak's multiple-comparisons test. Error bars represent mean±SEM. Because miR-584-5p induces apoptosis, it was reasoned that DNA strand breaks induced by miR-584-5p and eIF4E3/HDAC1 silencing may not be properly repaired. To confirm those findings, a functional assay was performed to monitor homologous recombination (HR) because HR-dependent events repair IR-induced double-strand breaks in G2 phase. The ISceI-based DR-GFP reporter assay, which measures the frequency of double-strand break repair by HR (Gunn, A., Bennardo, N., Cheng, A. & Stark, J. M. Journal of Biological Chemistry 286, 42470-42482, (2011); Pierce, A. J., Johnson, R. D., Thompson, L. H. & Jasin, M. Genes & Development 13, 2633-2638, (1999); and Stark, J. M., Pierce, A. J., Oh, J., Pastink, A. & Jasin, M. Molecular and Cellular Biology 24, 9305-9316, (2004)), was used. […] U20S-DR-GFP cells were transfected with miR-NC or miR-584-5p or scramble-siRNA or eIF4E3/HDAC1-siRNAs followed by transfection with pCAGGS vector with ISceI/GFP. I-SceI expression leads to double-strand breaks that HR repairs by using the wild-type GFP, resulting in GFP^+ cells. […] The p-values were calculated using either Student t-tests (mimic) or one-way ANOVA followed by Dunnett's multiple-comparisons test (siRNAs). […]

MB cells [2] = assay: Immunofluorescence count of mitotic cells; conditions: vs scrambled-transfected cells
Description: as §1
Immunofluorescence and Western blot analysis Immunofluorescence analyses was carried out on cells fixed in 4% paraformaldehyde (Imam, J. S. et al. PLoS One 7, e52397, (2012)). […]

[3] = tested on: TUBB3, TUBB2a, and TUBB2b; assay: qPCR analysis of β-tubulin isotypes; conditions: miR-584-5p-overexpressing cells
Description: DNA is stained with DAPI (blue), whereas spindle is stained with β-tubulin (red) (below).
VCR disrupts the integrity of the mitotic spindle and destabilizes microtubules (George, P., Journey, L. J. & Goldstein, M. N. J Natl Cancer Inst 35, 355-375 (1965)). Therefore, it was tested whether miR-584-5p and its target genes might affect microtubule dynamics. First, expression of tubulins was deteremined because VCR resistance has been associated with altered expression of tubulin isotypes (Sirotnak, F. M., Danenberg, K. D., Chen, J., Fritz, F. & Danenberg, P. V. Biochem Biophys Res Commun 269, 21-24, (2000)). […] In FIG. 12A, the p-values were calculated using standard Student t-tests. Error bars represent mean±SEM. ****, p<0.0001. […] The p-values were calculated using standard Student t-tests. Error bars represent mean±SEM. To further test how miR-584-5p and its target genes affect spindle integrity, immunofluorescence analysis was performed on miR-584-5p-overexpressing or eIF4E3/HDAC1-silenced MB cells. […] In FIG. 11F, the p-values were calculated using standard Student t-tests. Error bars represent mean±SEM. […] In FIG. 11H, The p-values were calculated using standard Student t-tests. Error bars represent mean±SEM. ****, p<0.0001; ***, p<0.001; **, p<0.01; *, p<0.05. Quantitative real-time PCR. Total RNA was extracted using miRNAeasy kit (Qiagen). […]

miR-584-5p: microRNA mimic; nucleotide sequence UUAUGGUUUGCCUGGGACUGAG (SEQ ID NO: 1); purchased from Thermofisher (chemistry not given here)
cell cycle progression (MB cells [1]): G2/M cell cycle arrest | GFP-positive cells (homologous recombination events) (U20S-DR-GFP cells): significantly fewer GFP-positive cells | mitotic cells (MB cells [2]): significantly more mitotic cells | transcript levels of TUBB3, TUBB2a, and TUBB2b [3]: significantly reduced transcript levels

— patent publication US20210071180A1, “MICRORNA 584-5P COMPOSITIONS AND METHODS FOR TREATING CANCER” (BOARD OF REGENTS, THE UNIVERSY OF TEXAS SYSTEM, priority 2018, published 2021)
